Values after ≈ are worked out from the molar mass of the structure shown. Counter-ions that a name gives are not always drawn.
Columns and labels:
Staphylococcus aureus = assay: Antibacterial activity against methicillin resistant Staphylococcus aureus after 24 hrs by agar plate dilution method; assay type: functional
Malassezia furfur = assay: Antifungal activity against Malassezia furfur after 2 to 4 days by agar plate dilution method; assay type: functional
MCF7 [1] = assay: Cytotoxicity against human wild-type MCF7 cells after 72 hrs; assay type: functional, cell-based; details: MCF7, 72 h
K562 [2] = assay: Antiproliferative activity against human K562 cells after 48 hrs; assay type: functional, cell-based; details: K562, 48 h
K562 [3] = assay: Induction of apoptosis in human K562 cells assessed as late apoptotic cells at 6.25 ug/ml by Annexin V/propidium iodide staining-based flow cytometry; assay type: functional
K562 [4] = assay: Induction of apoptosis in human K562 cells assessed as late apoptotic cells at 12.5 ug/ml by Annexin V/propidium iodide staining-based flow cytometry; assay type: functional
[5] = Inhibition of PMA-induced HGF production in HDF at 0.1 mg/ml after 24 hrs by ELISA; assay type: functional; details: Homo sapiens
[6] = Antiproliferative activity against spleen cells from SBP-immunized mouse assessed as fluorescence intensity at 10 uM after 3 days by Alamar blue dye-based method (reference value: 2781 +/- 59I); assay type: functional, Spleen cell
Rattus norvegicus [7] = assay: Anti-inflammatory activity in Wistar Han rat assessed as reduction in carrageenan-induced exudate volume at 10 mg/kg, po administered 1 hr prior to carrageenan challenge; assay type: functional
[8] = biological target: Indoleamine 2,3-dioxygenase 1 (Homo sapiens, UniProt P14902); assay: Inhibition of IDO-1 (unknown origin)
NCI/ADR-RES [9] = assay: Cytotoxicity against human MCF7/ADR cells after 72 hrs; assay type: functional, cell-based
K562 [10] = assay: Induction of apoptosis in human K562 cells assessed as late apoptotic cells at 25 ug/ml by Annexin V/propidium iodide staining-based flow cytometry; assay type: functional
K562 [11] = assay: Antiproliferative activity against human K562 cells after 48 hrs by MTT staining-based method; assay type: functional, cell-based; details: K562, 48 h
K562 [12] = assay: Antiproliferative activity against human K562 cells after 24 hrs; assay type: functional, cell-based; details: K562, 24 h
Rattus norvegicus [13] = assay: Anti-inflammatory activity in Wistar Han rat assessed as reduction in carrageenan-induced increase in infiltrating cells at 10 mg/kg, po administered 1 hr prior to carrageenan challenge by vital trypan blue staining-based microscopic method; assay type: functional
[14] = biological target: T1, Polyunsaturated fatty acid 5-lipoxygenase (Homo sapiens, UniProt P09917); assay: Inhibition of 5-LO in fMLP-stimulated human neutrophils by HPLC analysis
T1 sequence (P09917 whole entry): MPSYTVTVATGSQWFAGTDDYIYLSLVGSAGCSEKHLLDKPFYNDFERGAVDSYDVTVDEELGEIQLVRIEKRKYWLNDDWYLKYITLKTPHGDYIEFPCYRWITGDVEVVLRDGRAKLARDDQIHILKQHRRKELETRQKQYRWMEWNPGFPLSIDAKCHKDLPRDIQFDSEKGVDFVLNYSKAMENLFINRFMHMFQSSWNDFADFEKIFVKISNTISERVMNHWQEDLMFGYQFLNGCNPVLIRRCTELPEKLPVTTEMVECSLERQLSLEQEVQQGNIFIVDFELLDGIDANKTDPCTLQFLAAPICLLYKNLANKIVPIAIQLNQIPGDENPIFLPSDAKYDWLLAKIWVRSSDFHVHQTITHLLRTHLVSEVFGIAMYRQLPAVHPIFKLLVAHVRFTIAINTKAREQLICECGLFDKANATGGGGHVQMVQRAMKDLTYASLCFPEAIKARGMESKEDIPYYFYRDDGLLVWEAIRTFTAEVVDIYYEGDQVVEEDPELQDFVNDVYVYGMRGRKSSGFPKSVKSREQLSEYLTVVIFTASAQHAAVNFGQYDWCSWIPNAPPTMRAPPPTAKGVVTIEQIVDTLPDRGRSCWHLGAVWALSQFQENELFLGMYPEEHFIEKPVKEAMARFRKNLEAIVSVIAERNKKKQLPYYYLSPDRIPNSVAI

Rattus norvegicus [15] = assay: Anti-inflammatory activity in Wistar Han rat assessed as reduction of carrageenan-induced PGE2 levels at 10 mg/kg, po administered 1 hr prior to carrageenan challenge by radioimmunoassay; assay type: functional
MOLT-4 [16] = assay: Antiproliferative activity against human MOLT4 cells after 24 hrs; assay type: functional, cell-based; details: MOLT-4, 24 h
HL-60 [17] = assay: Antiproliferative activity against human HL60 cells after 48 hrs; assay type: functional, cell-based
[18] = Antiproliferative activity against spleen cells from SBP-immunized mouse assessed as fluorescence intensity at 5 uM after 3 days by Alamar blue dye-based method (reference value: 2781 +/- 59I); assay type: functional, Spleen cell
Rattus norvegicus [19] = assay: Anti-inflammatory activity in Wistar Han rat assessed as reduction of carrageenan-induced pleural LTB4 levels at 10 mg/kg, po administered 1 hr prior to carrageenan challenge by HPLC analysis; assay type: functional
[20] = biological target: T1, Polyunsaturated fatty acid 5-lipoxygenase; assay: Inhibition of 5-LO in LPS-stimulated human neutrophils by HPLC analysis
HL-60 [21] = assay: Antiproliferative activity against human HL60 cells after 24 hrs; assay type: functional, cell-based; details: HL-60, 24 h
MOLT-4 [22] = assay: Antiproliferative activity against human MOLT4 cells after 48 hrs; assay type: functional, cell-based; details: MOLT-4, 48 h
[23] = Inhibition of EGF-induced HGF production in HDF at 2 mg/ml after 72 hrs by ELISA; assay type: functional; details: Homo sapiens
NCI/ADR-RES [24] = assay: Cytotoxicity against human MCF7/ADR cells assessed as inhibition of cell proliferation at 10^-6 M after 5 days by MTT assay; assay type: functional; details: 120 h
MCF7 [25] = assay: Cytotoxicity against human wild-type MCF7 cells assessed as cell growth at 3 mM after 72 hrs relative to control; assay type: functional; details: MCF7, 72 h, read-out: Activity
NCI/ADR-RES [26] = assay: Cytotoxicity against human MCF7/ADR cells assessed as cell growth at 3 mM after 72 hrs relative to control; assay type: functional; details: read-out: Activity
[27] = biological target: ATP-dependent translocase ABCB1 (Homo sapiens, UniProt P08183); assay: Inhibition of MDR1 in human MCF7/ADR cells assessed as potentiation of verapamil-induced cytotoxicity by measuring cell growth (reference value: 78.2%); assay type: cell-based; parameters: scale not given: the % may be the effect or the level left
Homo sapiens [28] = organism: Homo sapiens; assay: Inhibition of human DNA topoisomerase 2 ATPase activity at 400 mM by Topo-2 ATPase assay
Homo sapiens [29] = organism: Homo sapiens; assay: Inhibition of human DNA topoisomerase 2-mediated decatenation of kinetoplast DNA at […] by kinetoplast DNA decatenation assay
Homo sapiens [30] = organism: Homo sapiens; assay: Inhibition of human DNA topoisomerase 2 ATPase activity at 200 mM by Topo-2 ATPase assay
Homo sapiens [31] = organism: Homo sapiens; assay: Inhibition of human DNA topoisomerase 2 ATPase activity at 300 mM by Topo-2 ATPase assay

Sequence of ATP-dependent translocase ABCB1 (P08183 whole entry): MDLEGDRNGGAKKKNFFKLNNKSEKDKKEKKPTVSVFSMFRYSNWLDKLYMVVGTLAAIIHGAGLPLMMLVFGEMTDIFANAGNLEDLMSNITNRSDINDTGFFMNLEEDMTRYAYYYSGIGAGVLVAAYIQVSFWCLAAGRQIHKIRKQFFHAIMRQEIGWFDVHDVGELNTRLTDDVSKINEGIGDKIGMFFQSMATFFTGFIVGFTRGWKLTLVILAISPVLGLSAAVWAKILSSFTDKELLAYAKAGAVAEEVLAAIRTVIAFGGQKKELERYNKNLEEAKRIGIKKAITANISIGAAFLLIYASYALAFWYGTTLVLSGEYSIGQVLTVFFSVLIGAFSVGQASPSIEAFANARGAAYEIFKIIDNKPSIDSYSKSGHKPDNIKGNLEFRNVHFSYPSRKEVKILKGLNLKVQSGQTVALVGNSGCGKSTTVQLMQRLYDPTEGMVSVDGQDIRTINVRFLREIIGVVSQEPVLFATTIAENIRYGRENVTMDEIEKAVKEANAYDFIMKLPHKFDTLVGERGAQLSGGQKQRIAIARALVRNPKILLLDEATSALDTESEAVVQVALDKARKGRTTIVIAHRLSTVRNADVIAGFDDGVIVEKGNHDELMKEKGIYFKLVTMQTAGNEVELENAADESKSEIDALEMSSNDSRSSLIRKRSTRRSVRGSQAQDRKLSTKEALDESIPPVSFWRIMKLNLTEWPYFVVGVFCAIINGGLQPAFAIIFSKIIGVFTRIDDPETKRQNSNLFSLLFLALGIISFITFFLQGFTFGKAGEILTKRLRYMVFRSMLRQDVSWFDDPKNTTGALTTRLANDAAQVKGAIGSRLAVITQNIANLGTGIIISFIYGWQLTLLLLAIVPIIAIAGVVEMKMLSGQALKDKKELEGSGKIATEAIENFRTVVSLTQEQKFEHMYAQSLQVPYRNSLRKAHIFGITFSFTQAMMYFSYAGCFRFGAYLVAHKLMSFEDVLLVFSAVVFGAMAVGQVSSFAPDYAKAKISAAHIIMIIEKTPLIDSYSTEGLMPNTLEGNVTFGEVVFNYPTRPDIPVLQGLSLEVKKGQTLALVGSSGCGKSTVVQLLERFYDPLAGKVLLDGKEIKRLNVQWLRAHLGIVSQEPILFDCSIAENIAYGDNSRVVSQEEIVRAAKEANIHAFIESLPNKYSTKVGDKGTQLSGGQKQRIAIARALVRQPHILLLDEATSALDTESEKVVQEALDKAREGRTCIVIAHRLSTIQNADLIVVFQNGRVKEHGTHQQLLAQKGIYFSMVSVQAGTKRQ
Sequence of Indoleamine 2,3-dioxygenase 1 (P14902 whole entry): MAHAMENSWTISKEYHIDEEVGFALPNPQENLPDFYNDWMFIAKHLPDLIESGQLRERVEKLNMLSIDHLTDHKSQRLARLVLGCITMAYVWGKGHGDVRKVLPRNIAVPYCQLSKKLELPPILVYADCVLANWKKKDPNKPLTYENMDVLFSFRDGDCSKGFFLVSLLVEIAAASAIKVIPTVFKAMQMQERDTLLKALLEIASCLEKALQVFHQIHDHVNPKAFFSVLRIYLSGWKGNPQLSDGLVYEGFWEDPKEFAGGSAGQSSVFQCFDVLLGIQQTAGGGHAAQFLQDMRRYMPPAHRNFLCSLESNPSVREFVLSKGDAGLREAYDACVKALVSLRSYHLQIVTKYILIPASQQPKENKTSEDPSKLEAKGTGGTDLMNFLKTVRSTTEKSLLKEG

## Nc1ccc2nc3n(c(=O)c2c1)-c1ccccc1C3=O
Staphylococcus aureus
  MIC: 2 µg/mL (≈ 7.6 µM)
Malassezia furfur
  MIC: 20 µg/mL (≈ 76 µM)

## Cc1ccc2c(c1)C(=O)c1nc3ccccc3c(=O)n1-2
Staphylococcus aureus
  MIC: 0.5 µg/mL (≈ 1.91 µM)
Malassezia furfur
  MIC: > 120 µg/mL

## O=C1c2ccccc2-n2c1nc1ccccc1c2=O [TRYPTANTHRIN]
MCF7 [1]
  IC50: 580 to 15500 nM
K562 [2]
  IC50: 5 µM
K562 [3]
  Activity: 21.9%
K562 [4]
  Activity: 33.4%
[5]
  inhibition at 100 µg/mL: 70%
[6]
  Flu intensity: 2740
Rattus norvegicus [7]
  inhibition in vivo at 10 mg/kg: 80%
[8]
  IC50: 499 µM
NCI/ADR-RES [9]
  IC50: 0.03 to 10 µM
K562 [10]
  Activity: 52.2%
K562 [11]
  IC50: 8.8 µg/mL (≈ 35.4 µM)
K562 [12]
  IC50: 15 µM
Rattus norvegicus [13]
  inhibition in vivo at 10 mg/kg: 41%
[14]
  IC50: 200 to 600 nM
Rattus norvegicus [15]
  inhibition in vivo at 10 mg/kg: 42%
MOLT-4 [16]
  IC50: 10 µM
HL-60 [17]
  IC50: 0.002 to 20 mM
Staphylococcus aureus
  MIC: 0.5 µg/mL (≈ 2.01 µM)
[18]
  Flu intensity: 2826
Rattus norvegicus [19]
  inhibition in vivo at 10 mg/kg: 46%
[20]
  IC50: 200 to 600 nM
HL-60 [21]
  IC50: 5 µM
MOLT-4 [22]
  IC50: 8 µM
[23]
  inhibition at 2000 µg/mL: 70%
Malassezia furfur
  MIC: 4 µg/mL (≈ 16.1 µM)

## COc1cccc2c1C(=O)c1c(O)c3c(c(O)c1C2=O)C[C@@](O)(C(=O)CO)C[C@@H]3O[C@H]1C[C@H](N)[C@H](O)[C@H](C)O1 [DOXORUBICIN]
NCI/ADR-RES [24]
  inhibition at 1 µM: 20%

## O=C1c2ccccc2-n2c1nc1ccc([N+](=O)[O-])cc1c2=O
Staphylococcus aureus
  MIC: > 100 µg/mL
Malassezia furfur
  MIC: > 160 µg/mL

## N[C@@H](Cc1c[nH]c2ccccc12)C(=O)O [TRYPTOPHAN]
[8]
  IC50: 499 µM

## O=C1c2cc(Br)ccc2-n2c1nc1ccccc1c2=O
Staphylococcus aureus
  MIC: 0.1 µg/mL (≈ 0.306 µM)
Malassezia furfur
  MIC: 2.5 µg/mL (≈ 7.64 µM)

## O=C1c2ccccc2-n2c1nc1ccc(Br)cc1c2=O
Staphylococcus aureus
  MIC: 0.3 µg/mL (≈ 0.917 µM)
Malassezia furfur
  MIC: 4 µg/mL (≈ 12.2 µM)

## O=C1c2ccccc2-n2c1nc1ccc(Cl)cc1c2=O
Staphylococcus aureus
  MIC: 0.1 µg/mL (≈ 0.354 µM)
Malassezia furfur
  MIC: 4 µg/mL (≈ 14.1 µM)

## COc1cccc2c1C(=O)c1c(O)c3c(c(O)c1C2=O)C[C@@](O)(C(=O)CO)C[C@@H]3O[C@H]1C[C@H](N)[C@H](O)[C@H](C)O1 [DOXORUBICIN HYDROCHLORIDE]
MCF7 [1]
  IC50: 990 to 2630 nM
NCI/ADR-RES [9]
  IC50: > 50 µM
MCF7 [25]
  growth at 3000 µM: 3.9 to 24.1%
NCI/ADR-RES [26]
  growth at 3000 µM: 0.44 to 78.2%

## COc1ccc(CCN(C)CCCC(C#N)(c2ccc(OC)c(OC)c2)C(C)C)cc1OC (configuration not stated)
[27]
  Activity: 18.1%

## O=C1c2cc3ccccc3cc2-n2c1nc1ccccc1c2=O
MCF7 [1]
  IC50: 270 to 12100 nM
[27]
  Activity: 59%
NCI/ADR-RES [9]
  IC50: 0.16 to 9.82 µM
Homo sapiens [28]
  inhibition: 47.2%
Homo sapiens [29]
  inhibition: 43.4%
Homo sapiens [30]
  inhibition: 30.7%

## O=C1c2cc(F)ccc2-n2c1nc1ccccc1c2=O
Staphylococcus aureus
  MIC: 0.1 µg/mL (≈ 0.376 µM)
Malassezia furfur
  MIC: 1 µg/mL (≈ 3.76 µM)

## COc1ccc2c(c1)C(=O)c1nc3ccccc3c(=O)n1-2
Staphylococcus aureus
  MIC: 2.5 µg/mL (≈ 8.98 µM)
Malassezia furfur
  MIC: > 120 µg/mL

## CO[C@@H]1[C@@H](OC(N)=O)[C@@H](O)[C@H](Oc2ccc3c(O)c(NC(=O)c4ccc(O)c(CC=C(C)C)c4)c(=O)oc3c2C)OC1(C)C
Homo sapiens [31]
  inhibition: 45.9%
Homo sapiens [28]
  inhibition: 60.2%
Homo sapiens [30]
  inhibition: 38.5%

From ChEMBL document CHEMBL4043112, “Recent synthetic and medicinal perspectives of tryptanthrin” (Bioorg Med Chem, 2017)
